Calls of active or inactive are those of the source. The calls are words filed in the database; no cut-off is given here.
Key:
[1] = target: T1, von Hippel-Lindau disease tumor suppressor/N-terminal Xaa-Pro-Lys N-methyltransferase 1 (Homo sapiens) (UniProt P40337+Q9BV86); assay: PROTAC activity at VHL/NTMT1 in human HT-29 cells assessed as reduction in NTMT1 protein level incubated for 24 hrs by Western blot analysis; type: cell-based
[2] = target: T2, N-terminal Xaa-Pro-Lys N-methyltransferase 1 (Homo sapiens, UniProt Q9BV86); assay: Inhibition of NTMT1 (unknown origin) using SPKRIAKRRS(CONH2) peptide as substrate assessed as SAH production incubated for 10 mins in the presence of SAM by HPLC analysis
T2 sequence (Q9BV86 whole entry): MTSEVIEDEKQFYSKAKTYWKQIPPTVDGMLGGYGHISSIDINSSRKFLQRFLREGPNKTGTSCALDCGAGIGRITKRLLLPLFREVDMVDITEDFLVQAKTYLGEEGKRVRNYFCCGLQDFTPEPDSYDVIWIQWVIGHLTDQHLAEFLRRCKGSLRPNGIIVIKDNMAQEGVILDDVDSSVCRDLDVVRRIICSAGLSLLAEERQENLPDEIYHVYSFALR

[3] = target: T1, von Hippel-Lindau disease tumor suppressor/N-terminal Xaa-Pro-Lys N-methyltransferase 1 (Homo sapiens); assay: PROTAC activity at VHL/NTMT1 in human HCT-116 cells assessed as reduction in NTMT1 protein level incubated for 24 hrs by Western blot analysis; type: cell-based
[4] = target: T3, N-terminal Xaa-Pro-Lys N-methyltransferase 1 (Homo sapiens) (UniProt Q9BV86); assay: Potency index, ratio of DC541 IC50 to test compound IC50 for inhibition of NTMT1 (unknown origin) using SPKRIAKRRS(CONH2) peptide as substrate assessed as SAH production incubated for 10 mins in the presence of SAM by HPLC analysis
T3 sequence (whole entry): T2 sequence (Q9BV86 whole entry)

HT-29 = assay: Cytotoxicity against human HT-29 cells assessed as reduction in cell viability at 1 to 64 uM measured after 24 hrs by WST-8 assay; type: toxicity, cell-based; details: ht-29, 24 h, dose 1-64 µM
HCT-116 [5] = assay: Cytotoxicity against human HCT-116 cells assessed as reduction in cell viability at 1 to 64 uM incubated for 24 hrs by WST-8 assay; type: toxicity, cell-based; details: hct-116, 24 h, dose 1-64 µM
HCT-116 [6] = assay: Antiproliferative activity against human HCT-116 cells cultured in PG-S assessed as decrease in cell number at 64 uM measured after 3 days by AO/PI staining based cell counter analysis relative to control; type: functional; parameters: scale not given: the % may be the effect or the level left; details: time 3 day
[7] = Upregulation of CALR in human HCT-116 cells assessed as fold change at 25 uM incubated for 24 hrs by Western blot analysis relative to control; type: functional
HCT-116 [8] = assay: Antiproliferative activity against human HCT-116 cells assessed as reduction in tumor spheroid growth at 64 uM measured after 12 days by imaging analysis relative to control; type: functional; parameters: scale not given: the % may be the effect or the level left; details: time 12 day
HCT-116 [9] = assay: Antiproliferative activity against human HCT-116 cells assessed as reduction in cell proliferation incubated for 72 hrs by fluorescence based microplate reader analysis; type: functional; details: dose 1-64 µM
HCT-116 [10] = assay: Antiproliferative activity against human HCT-116 cells assessed as inhibition of cell proliferation at 1 to 64 uM incubated for 72 hrs by fluorescence based microplate reader analysis relative to control; type: functional; details: dose 1-64 µM
[11] = target: T1, von Hippel-Lindau disease tumor suppressor/N-terminal Xaa-Pro-Lys N-methyltransferase 1 (Homo sapiens); assay: PROTAC activity at VHL/NTMT1 in human HCT-116 cells assessed as reduction in NTMT1 protein level at 50 uM incubated for 24 hrs by Western blot analysis; type: cell-based
HCT-116 [12] = assay: Antiproliferative activity against NTMT1 knockout human HCT-116 cells at 1 to 64 uM incubated for 72 hrs by fluorescence based microplate reader analysis; type: functional, cell-based; details: dose 1-64 µM
[13] = target: T1, von Hippel-Lindau disease tumor suppressor/N-terminal Xaa-Pro-Lys N-methyltransferase 1 (Homo sapiens); assay: PROTAC activity at VHL/NTMT1 in human HT-29 cells assessed as reduction in NTMT1 protein level at 50 uM incubated for 24 hrs by Western blot analysis; type: cell-based
[14] = target: T1, von Hippel-Lindau disease tumor suppressor/N-terminal Xaa-Pro-Lys N-methyltransferase 1 (Homo sapiens); assay: PROTAC activity at VHL/NTMT1 in human HT-29 cells assessed as reduction in NTMT1 protein level at 50 uM measured upto 6 hrs by Western blot analysis; type: cell-based
[15] = target: T4, von Hippel-Lindau disease tumor suppressor/N-terminal Xaa-Pro-Lys N-methyltransferase 2 (Homo sapiens) (UniProt P40337+Q5VVY1); assay: PROTAC activity at VHL/NTMT2 in human HT-29 cells assessed as reduction in NTMT2 protein level at 5 to 50 uM incubated for 24 hrs by Western blot analysis; type: cell-based; details: dose 5-50 µM
[16] = target: T1, von Hippel-Lindau disease tumor suppressor/N-terminal Xaa-Pro-Lys N-methyltransferase 1 (Homo sapiens); assay: PROTAC activity at VHL/NTMT1 in human HCT-116 cells co-expressing eGFP fusion protein assessed as reduction in NTMT1 protein level by measuring reduction in eGFP fluorescence at 100 uM incubated for 24 hrs by fluorescence microscopic analysis; type: cell-based
HCT-116 [17] = assay: Antiproliferative activity against human HCT-116 cells cultured in PG-S assessed as decrease in cell number measured after 3 days by AO/PI staining based cell counter analysis; type: functional; details: time 3.0 day
[18] = target: T1, von Hippel-Lindau disease tumor suppressor/N-terminal Xaa-Pro-Lys N-methyltransferase 1 (Homo sapiens); assay: PROTAC activity at VHL/NTMT1 in human HT-29 cells assessed as reduction in NTMT1 protein level by measuring maximal efficacy at 50 uM measured after 24 hrs by Western blot analysis relative to control; type: cell-based
HCT-116 [19] = assay: Upregulation of CALR in human HCT-116 cells at 25 uM incubated for 24 hrs by LC-MS based proteomic analysis; type: functional, cell-based
[20] = target: T1, von Hippel-Lindau disease tumor suppressor/N-terminal Xaa-Pro-Lys N-methyltransferase 1 (Homo sapiens); assay: PROTAC activity at VHL/NTMT1 in human HCT-116 cells assessed as reduction in NTMT1 protein level at 50 uM preincubated with compound for 24 hrs followed by compound washout and measured after 20 hrs by Western blot analysis; type: cell-based
[21] = target: T1, von Hippel-Lindau disease tumor suppressor/N-terminal Xaa-Pro-Lys N-methyltransferase 1 (Homo sapiens); assay: PROTAC activity at VHL/NTMT1 in human HT-29 cells assessed as reduction in NTMT1 protein level by measuring maximal efficacy at 0.1 to 50 uM incubated for 24 hrs by Western blot analysis relative to control; type: cell-based; details: dose 0.1-50 µM
HCT-116 [22] = assay: Downregulation of NTMT1 in human HCT-116 cells at 25 uM incubated for 24 hrs by LC-MS based proteomic analysis; type: functional, cell-based
HCT-116 [23] = assay: Antiproliferative activity against human HCT-116 cells cultured in PG-S assessed as viable cells upto 64 uM measured after 3 days by AO/PI staining based cell counter analysis relative to control; type: functional; details: time 3 day, up to 64 µM
[24] = target: T1, von Hippel-Lindau disease tumor suppressor/N-terminal Xaa-Pro-Lys N-methyltransferase 1 (Homo sapiens); assay: PROTAC activity at VHL/NTMT1 in human HCT-116 cells assessed as reduction in NTMT1 protein level at 50 uM preincubated with MG132 for 2 hrs followed by compound addition and measured after 24 hrs by Western blot analysis; type: cell-based
[25] = target: T1, von Hippel-Lindau disease tumor suppressor/N-terminal Xaa-Pro-Lys N-methyltransferase 1 (Homo sapiens); assay: PROTAC activity at VHL/NTMT1 in human HCT-116 cells assessed as reduction in NTMT1 protein level at 50 uM preincubated with MLN4924 for 2 hrs followed by compound addition and measured after 24 hrs by Western blot analysis; type: cell-based
HCT-116 [26] = assay: Induction of cell cycle arrest in human HCT-116 cells assessed as G0/G1 phase cells at 64 uM incubated for 3 days by PI staining based flow cytometric analysis (reference value: 65%); type: functional; details: time 3 day
[27] = target: T1, von Hippel-Lindau disease tumor suppressor/N-terminal Xaa-Pro-Lys N-methyltransferase 1 (Homo sapiens); assay: PROTAC activity at VHL/NTMT1 in human HCT-116 cells assessed as reduction in NTMT1 protein level by measuring maximal efficacy at 50 uM measured at 3 hrs by Western blot analysis relative to control; type: cell-based
[28] = target: T1, von Hippel-Lindau disease tumor suppressor/N-terminal Xaa-Pro-Lys N-methyltransferase 1 (Homo sapiens); assay: PROTAC activity at VHL/NTMT1 in human HCT-116 cells assessed as reduction in NTMT1 protein level by measuring maximal efficacy at 0.1 to 50 uM incubated for 24 hrs by Western blot analysis relative to control; type: cell-based; details: dose 0.1-50 µM
[29] = target: T1, von Hippel-Lindau disease tumor suppressor/N-terminal Xaa-Pro-Lys N-methyltransferase 1 (Homo sapiens); assay: PROTAC activity at VHL/NTMT1 in human HT-29 cells assessed as reduction in NTMT1 protein level at 50 uM preincubated with compound for 24 hrs followed by compound washout and measured after 20 hrs by Western blot analysis; type: cell-based
HCT-116 [30] = assay: Induction of cell cycle arrest in human HCT-116 cells assessed as decrease in S phase cells at 64 uM incubated for 3 days by PI staining based flow cytometric analysis; type: functional; details: time 3.0 day
HCT-116 [31] = assay: Downregulation of NTMT1 in human HCT-116 cells at 25 uM incubated for 24 hrs by Western-blot analysis; type: functional, cell-based
[32] = target: T4, von Hippel-Lindau disease tumor suppressor/N-terminal Xaa-Pro-Lys N-methyltransferase 2 (Homo sapiens); assay: PROTAC activity at VHL/NTMT2 in human HCT-116 cells assessed as reduction in NTMT2 protein level at 5 to 50 uM incubated for 24 hrs by Western blot analysis; type: cell-based; details: dose 5-50 µM
HCT-116 [33] = assay: Induction of cell cycle arrest in human HCT-116 cells assessed as accumulation of cells at G0/G1 phase incubated for 3 days by PI staining based flow cytometric analysis; type: functional; details: time 3.0 day

T1 sequence (P40337 whole entry, looked up, one chain of several): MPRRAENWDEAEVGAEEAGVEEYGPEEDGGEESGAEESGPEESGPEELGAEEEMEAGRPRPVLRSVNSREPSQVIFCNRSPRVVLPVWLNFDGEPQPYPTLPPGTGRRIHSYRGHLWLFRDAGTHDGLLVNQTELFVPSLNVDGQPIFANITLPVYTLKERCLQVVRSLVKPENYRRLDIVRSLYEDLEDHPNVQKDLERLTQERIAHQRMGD
T4 sequence (P40337 whole entry, looked up, the tested form may be a part): as the sequence (P40337 whole entry, looked up, one chain of several) above
T4 sequence (Q5VVY1 whole entry, looked up, the tested form may be a part): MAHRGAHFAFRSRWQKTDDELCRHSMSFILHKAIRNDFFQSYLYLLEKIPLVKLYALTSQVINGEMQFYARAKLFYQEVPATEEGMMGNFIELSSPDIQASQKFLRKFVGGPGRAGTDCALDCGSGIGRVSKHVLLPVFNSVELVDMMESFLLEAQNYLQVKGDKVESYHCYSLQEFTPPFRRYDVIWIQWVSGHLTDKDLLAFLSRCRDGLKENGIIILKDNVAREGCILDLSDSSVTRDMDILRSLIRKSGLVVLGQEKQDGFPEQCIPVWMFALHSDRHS

## Cc1ncsc1-c1ccc(CNC(=O)[C@@H]2C[C@@H](O)CN2C(=O)[C@H](C(C)C)N2Cc3ccccc3C2=O)c(OCCOCCNC(=O)c2ccccc2NC(=O)[C@H](CCCCN)NC(=O)[C@@H]2CCCN2C(=O)Cc2cccc3ccccc23)c1
[1]
  Activity: Dose-Dependent Effect
[2]
  IC50: 2000 nM
[3]
  Activity: Dose-Dependent Effect
[4]
  Ratio IC50: 2

## Cc1ncsc1-c1ccc(CNC(=O)[C@@H]2C[C@@H](O)CN2C(=O)[C@H](C(C)C)N2Cc3ccccc3C2=O)c(OCCOCCOCCOCCNC(=O)c2ccccc2NC(=O)[C@H](CCCCN)NC(=O)[C@@H]2CCCN2C(=O)Cc2cccc3ccccc23)c1
[1]
  Activity: Dose-Dependent Effect
[2]
  IC50: 2000 nM
[3]
  Activity: Dose-Dependent Effect
[4]
  Ratio IC50: 2

## Cc1ncsc1-c1ccc(CNC(=O)[C@@H]2C[C@H](O)CN2C(=O)[C@H](C(C)C)N2Cc3ccccc3C2=O)c(OCCNC(=O)c2ccccc2NC(=O)[C@H](CCCCN)NC(=O)[C@@H]2CCCN2C(=O)Cc2cccc3ccccc23)c1
HT-29
  Activity: Non-Toxic
[2]
  IC50: 2420 nM
HCT-116 [5]
  Activity: Non-Toxic
HCT-116 [6]
  Activity: 78%
[7]
  fold change (FC): 1.1
HCT-116 [8]
  Activity: 32%
HCT-116 [9]
  Activity: Active
HCT-116 [10]
  inhibition (INH): 22%
[11]
  Activity: inactive
HCT-116 [12]
  Activity: inactive
[4]
  Ratio IC50: 2
[13]
  Activity: inactive

## NCCCC[C@H](NC(=O)[C@@H]1CCCN1C(=O)Cc1cccc2ccccc12)C(=O)Nc1ccccc1C(N)=O
[2]
  IC50: 4380 nM

## NCCCC[C@H](NC(=O)[C@@H]1CCCN1C(=O)Cc1cccc2ccccc12)C(=O)Nc1ccccc1C(=O)O
[2]
  IC50: 9180 nM

## Cc1ncsc1-c1ccc(CNC(=O)[C@@H]2C[C@@H](O)CN2C(=O)[C@H](C(C)C)N2Cc3ccccc3C2=O)c(OCCNC(=O)c2ccccc2NC(=O)[C@H](CCCCN)NC(=O)[C@@H]2CCCN2C(=O)Cc2cccc3ccccc23)c1
HT-29
  Activity: Non-Toxic
[1]
  Activity: Dose-Dependent Effect
[14]
  Activity: inactive
[15]
  Activity: inactive
[16]
  Activity: Active
HCT-116 [17]
  Activity: Dose-Dependent Effect
[18]
  Emax: > 90%
[2]
  IC50: 1770 nM
HCT-116 [19]
  Activity: Active
HCT-116 [5]
  Activity: Non-Toxic
[3]
  Activity: Dose-Dependent Effect
HCT-116 [6]
  Activity: 68%
[7]
  fold change (FC): 1.5
HCT-116 [8]
  Activity: 62%
[20]
  Activity: inactive
HCT-116 [9]
  Activity: Active
[21]
  Emax: > 90%
HCT-116 [22]
  Activity: Active
HCT-116 [10]
  inhibition (INH): 47%
HCT-116 [23]
  Activity: >92%
[24]
  Activity: inactive
[25]
  Activity: inactive
HCT-116 [26]
  Activity: 71%
[11]
  Activity: Active
HCT-116 [12]
  Activity: inactive
[27]
  Emax: > 60%
[4]
  Ratio IC50: 2
[28]
  Emax: > 90%
[29]
  Activity: inactive
HCT-116 [30]
  Activity: Active
HCT-116 [31]
  Activity: Active
[32]
  Activity: inactive
HCT-116 [33]
  Activity: Dose-Dependent Effect

Source: ChEMBL document CHEMBL5247588, “Design and characterization of PROTAC degraders specific to protein N-terminal methyltransferase 1” (Eur J Med Chem, 2022)
